Source: ChEMBL document CHEMBL1800018, “Discovery of a series of imidazo[4,5-b]pyridines with dual activity at angiotensin II type 1 receptor and peroxisome proliferator-activated receptor-γ” (J Med Chem, 2011)

Key:
[1] = Clearance in rat at 1 mg/kg, iv; assay type: ADME, organism-based; design: dose 1 mg/kg, route intravenous; conditions: in vivo
[2] = biological target: T1, Type-1 angiotensin II receptor (Homo sapiens, UniProt P30556); assay: Displacement of [125I]Tyr4-Sar1,Ile8-Angiotensin II from human Angiotensin 1 receptor after 60 mins by scintillation counting
T1 sequence (P30556 whole entry): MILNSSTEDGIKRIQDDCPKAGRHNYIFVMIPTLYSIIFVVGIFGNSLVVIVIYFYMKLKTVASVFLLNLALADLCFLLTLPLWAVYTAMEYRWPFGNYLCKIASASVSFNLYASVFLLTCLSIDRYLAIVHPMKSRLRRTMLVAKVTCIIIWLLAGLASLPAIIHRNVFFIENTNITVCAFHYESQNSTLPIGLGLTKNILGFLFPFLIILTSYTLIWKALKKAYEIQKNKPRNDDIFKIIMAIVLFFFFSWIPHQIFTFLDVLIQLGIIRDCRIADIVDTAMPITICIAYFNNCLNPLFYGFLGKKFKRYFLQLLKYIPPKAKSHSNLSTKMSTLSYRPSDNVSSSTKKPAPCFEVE

Rattus norvegicus = assay: Antidiabetic activity in ZDF rat assessed as blood glucose level at 3 mg/kg, po QD for 40 days (reference value: 771+/-60 mg/dL); assay type: functional

CCc1nc2c(C)cc(CC(C)C)nc2n1[C@H]1CCc2cc(-c3ccccc3-c3nnn[nH]3)ccc21
clearance [1]: 14 mL/min/kg | IC50 [2]: 1.6 nM | Activity (Rattus norvegicus): 520 mg/dL
